Patent EP4635500A1, “THERAPEUTIC AGENT FOR BACTERIAL INFECTION” (Sumitomo Pharma Co., Ltd., priority 2022, dated 2024)
≈ marks a conversion by molar mass, not a printed value. Like-named read-outs stand apart in the source and are kept apart here.

Key:
Assay type in all cases: cell-based
Prevotella spp. = test: MIC, agar dilution, anaerobic bacteria (Example 9, Tables 18, 23); details: for MIC: (n)=Compound A µg/mL, 0=Compound A alone antibacterial
Gram-positive bacteria = test: MIC, agar dilution, anaerobic bacteria (Example 9, Tables 21, 26)
Enterobacter aerogenes = test: MIC and MBC, broth microdilution (Example 4, Table 3); details: Klebsiella aerogenes

C[C@@H](O)[C@H]1C(=O)N2C(C(=O)O)=C(S[C@@H]3CN[C@H](C(=O)N(C)C)C3)[C@H](C)[C@H]12 [MEPM, meropenem] was tested. Which MIC (Prevotella spp.; KUB No. 6564 Prevotella buccae) did it give?
Its MIC is 0.12 µg/mL (≈ 0.313 µM).

What about the MIC (Prevotella spp.; KUB No. 6565 Prevotella nigrescens) of the same compound?
Its MIC is 0.06 µg/mL (≈ 0.156 µM).

And the MIC (Prevotella spp.; KUB No. 6567 Prevotella melaninogenica)?
Its MIC is ≤ 0.03 µg/mL.

What about the MIC (Prevotella spp.; KUB No. 6568 Prevotella intermedia) of the same compound?
The MIC was 0.06 µg/mL (≈ 0.156 µM).

And the MIC (Prevotella spp.; KUB No. 6569 Prevotella nanceiensis)?
The MIC was 0.5 µg/mL (≈ 1.3 µM).

And the MIC (Prevotella spp.; KUB No. 6570 Prevotella intermedia)?
Its MIC is 0.06 µg/mL (≈ 0.156 µM).

And the MIC (Prevotella spp.; KUB No. 6571 Prevotella denticola)?
Its MIC is 0.06 µg/mL (≈ 0.156 µM).

And the MIC (Prevotella spp.; KUB No. 6572 Prevotella melaninogenica)?
The MIC was 0.06 µg/mL (≈ 0.156 µM).

What about the MIC (Prevotella spp.; KUB No. 6574 Prevotella oris) of the same compound?
Its MIC is ≤ 0.03 µg/mL.

And the MIC (Prevotella spp.; KUB No. 6575 Prevotella nigrescens)?
Its MIC is ≤ 0.03 µg/mL.

And the MIC (Prevotella spp.; KUB No. 6576 Prevotella intermedia)?
Its MIC is ≤ 0.03 µg/mL.

What about the MIC (Prevotella spp.; KUB No. 6579 Prevotella pallens) of the same compound?
The MIC was 0.06 µg/mL (≈ 0.156 µM).

And the MIC (Prevotella spp.; KUB No. 6581 Prevotella intermedia)?
The MIC was 0.06 µg/mL (≈ 0.156 µM).

What about the MIC (Prevotella spp.; KUB No. 6582 Prevotella melaninogenica) of the same compound?
The MIC was 0.06 µg/mL (≈ 0.156 µM).

What about the MIC (Prevotella spp.; KUB No. 6585 Prevotella baroniae) of the same compound?
Its MIC is 0.06 µg/mL (≈ 0.156 µM).

What about the MIC (Prevotella spp.; KUB No. 6587 Prevotella melaninogenica) of the same compound?
Its MIC is 0.06 µg/mL (≈ 0.156 µM).

What about the MIC (Prevotella spp.; KUB No. 6588 Prevotella nigrescens) of the same compound?
The MIC was ≤ 0.03 µg/mL.

And the MIC (Prevotella spp.; KUB No. 6589 Prevotella buccae)?
The MIC was 0.12 µg/mL (≈ 0.313 µM).

And the MIC (Prevotella spp.; KUB No. 6590 Prevotella buccae)?
The MIC was 0.32 µg/mL (≈ 0.834 µM).

And the MIC (Prevotella spp.; KUB No. 6591 Prevotella intermedia)?
Its MIC is 0.06 µg/mL (≈ 0.156 µM).

What about the MIC (Prevotella spp.; KUB No. 6592 Prevotella jejuni) of the same compound?
Its MIC is 0.06 µg/mL (≈ 0.156 µM).

What about the MIC (Prevotella spp.; KUB No. 6600 Prevotella intermedia) of the same compound?
The MIC was ≤ 0.03 µg/mL.

What about the MIC (Prevotella spp.; KUB No. 6601 Prevotella melaninogenica) of the same compound?
Its MIC is 0.12 µg/mL (≈ 0.313 µM).

And the MIC (Prevotella spp.; KUB No. 6603 Prevotella melaninogenica)?
The MIC was 0.12 µg/mL (≈ 0.313 µM).

And the MIC (Prevotella spp.; KUB No. 6609 Prevotella buccae)?
Its MIC is 0.12 µg/mL (≈ 0.313 µM).

And the MIC (Prevotella spp.; KUB No. 6611 Prevotella nigrescens)?
The MIC was 0.06 µg/mL (≈ 0.156 µM).

What about the MIC (Prevotella spp.; KUB No. 6612 Prevotella oris) of the same compound?
The MIC was 0.25 µg/mL (≈ 0.652 µM).

What about the MIC (Prevotella spp.; KUB No. 6613 Prevotella buccae) of the same compound?
The MIC was 0.12 µg/mL (≈ 0.313 µM).

What about the MIC (Prevotella spp.; KUB No. 6614 Prevotella intermedia) of the same compound?
The MIC was ≤ 0.03 µg/mL.

And the MIC (Prevotella spp.; KUB No. 6615 Prevotella buccae)?
The MIC was 0.06 µg/mL (≈ 0.156 µM).

And the MIC (Prevotella spp.; KUB No. 6617 Prevotella buccae)?
Its MIC is 0.06 µg/mL (≈ 0.156 µM).

What about the MIC (Prevotella spp.; KUB No. 6618 Prevotella melaninogenica) of the same compound?
The MIC was 0.06 µg/mL (≈ 0.156 µM).

What about the MIC (Prevotella spp.; KUB No. 6622 Prevotella loescheii) of the same compound?
The MIC was 0.06 µg/mL (≈ 0.156 µM).

And the MIC (Prevotella spp.; KUB No. 6623 Prevotella nigrescens)?
Its MIC is ≤ 0.03 µg/mL.

And the MIC (Prevotella spp.; KUB No. 6625 Prevotella melaninogenica)?
The MIC was ≤ 0.03 µg/mL.

And the MIC (Prevotella spp.; KUB No. 6626 Prevotella loescheii)?
Its MIC is ≤ 0.03 µg/mL.

What about the MIC (Prevotella spp.; KUB No. 6629 Prevotella bivia) of the same compound?
Its MIC is 0.06 µg/mL (≈ 0.156 µM).

And the MIC (Prevotella spp.; KUB No. 6630 Prevotella nigrescens)?
The MIC was ≤ 0.03 µg/mL.

What about the MIC (Prevotella spp.; KUB No. 6631 Prevotella jejuni) of the same compound?
The MIC was 0.06 µg/mL (≈ 0.156 µM).

And the MIC50 (Prevotella spp.; Prevotella spp.)?
Its MIC50 is 0.06 µg/mL (≈ 0.156 µM).

And the MIC90 (Prevotella spp.; Prevotella spp.)?
The MIC90 was 0.12 µg/mL (≈ 0.313 µM).

What about the MICrange (Prevotella spp.; Prevotella spp.) of the same compound?
Its MICrange is ≤0.03 to 0.5 µg/mL.

And the MIC (Prevotella spp.; Prevotella, KUB No. 6583 Prevotella nonceiensis)?
The MIC was 0.12 µg/mL (≈ 0.313 µM).

What about the MIC (Prevotella spp.; Prevotella, KUB No. 6604 Prevotella nonceiensis) of the same compound?
Its MIC is 0.25 µg/mL (≈ 0.652 µM).

What about the MIC50 (Prevotella spp.; Prevotella, n=54, combination: Compound A at 4 ug/mL, read-out: MIC50) of the same compound?
Its MIC50 is 0.06 µg/mL.

What about the MIC90 (Prevotella spp.; Prevotella, n=54, combination: Compound A at 4 ug/mL, read-out: MIC90) of the same compound?
Its MIC90 is 0.12 µg/mL.

What about the MIC (Prevotella spp.; po, KUB No. 6566 Prevotella oralis) of the same compound?
The MIC was ≤ 0.03 µg/mL.

And the MIC50 (Gram-positive bacteria)?
Its MIC50 is 0.06 µg/mL (≈ 0.156 µM).

And the MIC90 (Gram-positive bacteria)?
The MIC90 was 2 µg/mL (≈ 5.22 µM).

And the MIC (Gram-positive bacteria; ATCC43255, KUB No. 3518 Clostridioides difficile ATCC 43255, read-out: MIC)?
Its MIC is 2 µg/mL (≈ 5.22 µM).

And the MIC (Gram-positive bacteria; ATCC700057, KUB No. 2978 Clostridioides difficile ATCC 700057, read-out: MIC)?
Its MIC is 2 µg/mL (≈ 5.22 µM).

And the MIC (Gram-positive bacteria; ATCCBAA1803, KUB No. 3511 Clostridioides difficile ATCC BAA-1803, read-out: MIC)?
The MIC was 4 µg/mL (≈ 10.4 µM).

What about the MIC (Gram-positive bacteria; ATCCBAA1870, KUB No. 3385 Clostridioides difficile ATCC BAA-1870, read-out: MIC) of the same compound?
The MIC was 4 µg/mL (≈ 10.4 µM).

What about the MIC (Gram-positive bacteria; Cutibacterium acnes, ATCC11827) of the same compound?
The MIC was ≤ 0.03 µg/mL.

And the MIC (Gram-positive bacteria; Eggerthella lenta, ATCC43055)?
The MIC was 0.5 µg/mL (≈ 1.3 µM).

And the MIC (Gram-positive bacteria; Finegoldia magna, ATCC29328)?
The MIC was 0.06 µg/mL (≈ 0.156 µM).

What about the MICrange (Gram-positive bacteria; Gram-positive bacteria) of the same compound?
The MICrange was ≤0.03 to 4 µg/mL.

What about the MIC50 (Gram-positive bacteria; Gram-positive bacteria, read-out: MIC50) of the same compound?
Its MIC50 is 0.06 µg/mL (≈ 0.156 µM).

And the MIC90 (Gram-positive bacteria; Gram-positive bacteria, read-out: MIC90)?
Its MIC90 is 2 µg/mL (≈ 5.22 µM).

And the MIC (Gram-positive bacteria; KUB No. 3013 Bulleidia extructa, read-out: MIC)?
The MIC was 0.12 µg/mL (≈ 0.313 µM).

What about the MIC (Gram-positive bacteria; KUB No. 3014 Atropobium rimae, read-out: MIC) of the same compound?
Its MIC is 0.06 µg/mL (≈ 0.156 µM).

And the MIC (Gram-positive bacteria; Olsenella uli)?
Its MIC is ≤ 0.03 µg/mL.

What about the MIC (Gram-positive bacteria; Peptoniphilus asaccharolyticus, ATCC14963) of the same compound?
Its MIC is ≤ 0.03 µg/mL.

And the MIC (Gram-positive bacteria; Peptoniphilus indolicus)?
The MIC was ≤ 0.03 µg/mL.

What about the MIC (Gram-positive bacteria; Peptostreptococcus anaerobius) of the same compound?
Its MIC is 2 µg/mL (≈ 5.22 µM).

And the MIC (Gram-positive bacteria; Schaalia odontolytica, ATCC17929, KUB No. 3488 Actinomyces odontolyticus ATCC 17929, read-out: MIC)?
Its MIC is 0.12 µg/mL (≈ 0.313 µM).

And the MBC (Enterobacter aerogenes)?
Its MBC is 8 µg/mL (≈ 20.9 µM).

What about the MIC (Enterobacter aerogenes) of the same compound?
The MIC was 4 µg/mL (≈ 10.4 µM).
